# Measurements taken from patent US20230255953A1, “USE OF ROLUPERIDONE IN PREVENTING RELAPSE IN SCHIZOPHRENIA PATIENTS” (Minerva Neurosciences, Inc., priority 2022, published 2023).
# System: patients with negative symptoms of schizophrenia
# Test: Integrated analysis of Studies #1 and #2 (pooled ITT): PANSS-derived scores (NSFS, total, positive and negative subscales), DB, OL and whole study
# Assay type: in vivo, human
# Design: key to NSFS Score change from Baseline, Median: change from Baseline in PANSS NSFS points; higher score = more severe
# Conditions: pooled ITT; for NSFS Score change from Baseline, Median / PANSS Negative Subscale Score change from Baseline, Mean (SD) / PANSS Negative Subscale Score change from Baseline, Median / PANSS Total Score change from Baseline, Mean (SD) / PANSS Total Score change from Baseline, Median / PANSS Positive Subscale Score change from Baseline, Mean (SD) / PANSS Positive Subscale Score change from Baseline, Median / NSFS Score change from Baseline, Mean (SD): Roluperidone Total; for NSFS Score change from Baseline, Median / PANSS Negative Subscale Score change from Baseline, Mean (SD) / PANSS Negative Subscale Score change from Baseline, Median / PANSS Total Score change from Baseline, Mean (SD) / PANSS Total Score change from Baseline, Median / NSFS Score change from Baseline, Mean (SD): DB; for NSFS Change from Active BL to Week 24, Mean (SD) / NSFS Change from Active BL to Week 24, Median / NSFS Change from Active BL to Week 52, Mean (SD) / NSFS Change from Active BL to Week 52, Median / NSFS Change from Active BL to Week 54, Mean (SD) / NSFS Change from Active BL to Week 54, Median / NSFS Change from Open-label BL to Week 24, Mean (SD) / NSFS Change from Open-label BL to Week 24, Median / NSFS Change from Open-label BL to Week 52, Mean (SD) / NSFS Change from Open-label BL to Week 52, Median / NSFS Change from Open-label BL to Week 54, Mean (SD) / NSFS Change from Open-label BL to Week 54, Median / NSFS Change from Study BL to Week 24, Mean (SD) / NSFS Change from Study BL to Week 24, Median / NSFS Change from Study BL to Week 52, Mean (SD) / NSFS Change from Study BL to Week 52, Median / NSFS Change from Study BL to Week 54, Mean (SD) / NSFS Change from Study BL to Week 54, Median: Roluperidone at Any Time
# Description: The primary integrated analysis of the efficacy of Roluperidone compared with placebo for the treatment of negative symptoms of schizophrenia is based on the change from Baseline in the PANSS Marder's negative symptoms factor score (in this document referred to as NSFS) to Week 12. Efficacy is also supported by the analysis of change from Baseline in the PSP Total score and the CGI-S to Week 12.
# The PANSS was assessed at the time points described in Table 4.
# The PANSS-derived endpoints used in these studies and the integrated analyses are described in Table 5A and a summary of the individual PANSS items used by physicians and clinicians to measure the severity of the symptoms in a schizophrenia patient is provided in Table 5B. The scale is divided into three parts, a positive scale, which provides a “PANSS positive subscore”, a negative scale, which provides a “PANSS negative subscore”, and general psychopathology scale. The sum of these three parts provides a PANSS total score, which ranges from 30 to 210 (where higher scores indicate more severe symptoms). (See Kay, S. R., et al. “The positive and negative syndrome scale (PANSS) for schizophrenia,” Schizophr Bulletin, 13(2), 261-276 (1987) and Gopal, S., et al. “Improvement of Negative Symptoms in Schizophrenia with Paliperidone Palmitate 1-Month and 3-Month Long-Acting Injectables: Results from a Phase 3 Non-Inferiority Study” Neuropsychiatric Disease and Treatment, 681-690, DOI: 10.2147/NDT.5226296, both of which are incorporated by reference.)
# The Efficacy data from Study Nos. 1 and 2 were pooled. The majority of patients in the pooled ITT population completed the DB period (502 patients overall, 66.3%), with similar rates in each treatment group (placebo: 69.8%, 32 mg Roluperidone: 65.3%, and 64 mg Roluperidone: 63.8%) (Table 12). The majority (62.7%) of those who completed the DB period entered the OL period. The most common reason for discontinuation during the DB period among patients overall was withdrawal of consent (15.6%), followed by adverse events (7.3%) and lack of efficacy (5.4%) (Table 12). […] Approximately twice as many patients in the Roluperidone groups (32 mg: 8.5%; 64 mg: 9.1%) discontinued due to adverse events compared with patients in the placebo group (4.3%). More patients in the placebo group discontinued due to lack of efficacy (6.7%) than in the Roluperidone groups (32 mg: 4.4%; 64 mg: 5.1%). The low number of patients who discontinued due to lack of efficacy or withdrawal of consent probably reflects a low level of worsening of positive symptoms.
# The integrated analysis supporting the efficacy of Roluperidone as a treatment for the negative symptoms of schizophrenia in adults is presented below.
substance,measurement,setting,value
"1H-Isoindol-1-one,2-[ [1-[2-(4-fluorophenyl)-2-oxoethyl]-4-piperidinyl]methyl]-2,3-dihydro-, hydrochloride, hydrate (1:1:2) [Roluperidone]","NSFS Score change from Baseline, Median",Week 4,−2.0
same,"PANSS Negative Subscale Score change from Baseline, Mean (SD)",Week 4,−2.5 (2.75)
same,"PANSS Negative Subscale Score change from Baseline, Median",Week 4,−2.0
same,"PANSS Total Score change from Baseline, Mean (SD)",Week 4,−4.8 (7.13)
same,"PANSS Total Score change from Baseline, Median",Week 4,−5.0
same,"PANSS Positive Subscale Score change from Baseline, Mean (SD)",Week 4,−0.4 (2.49)
same,"PANSS Positive Subscale Score change from Baseline, Median",Week 4,0.0
same,"NSFS Score change from Baseline, Mean (SD)",Week 8,−3.4 (3.25)
same,"NSFS Score change from Baseline, Median",Week 8,−3.0
same,"PANSS Negative Subscale Score change from Baseline, Mean (SD)",Week 8,−3.6 (3.38)
same,"PANSS Negative Subscale Score change from Baseline, Median",Week 8,−3.0
same,"PANSS Total Score change from Baseline, Mean (SD)",Week 8,−6.5 (8.35)
same,"PANSS Total Score change from Baseline, Median",Week 8,−6.0
same,"PANSS Positive Subscale Score change from Baseline, Mean (SD)",Week 8,−0.5 (2.55)
same,"PANSS Positive Subscale Score change from Baseline, Median",Week 8,0.0
same,"NSFS Score change from Baseline, Mean (SD)",Week 12,−3.8 (3.39)
same,"NSFS Score change from Baseline, Median",Week 12,−4.0
same,"PANSS Negative Subscale Score change from Baseline, Mean (SD)",Week 12,−4.0 (3.59)
same,"PANSS Negative Subscale Score change from Baseline, Median",Week 12,−3.0
same,"PANSS Total Score change from Baseline, Mean (SD)",Week 12,−7.3 (8.66)
same,"PANSS Total Score change from Baseline, Median",Week 12,−7.0
same,"PANSS Positive Subscale Score change from Baseline, Mean (SD)",Week 12,−0.6 (2.64)
same,"PANSS Positive Subscale Score change from Baseline, Median",Week 12,0.0
same,"NSFS Change from Active BL to Week 24, Mean (SD)",32 mg,−3.7 (3.45)
same,"NSFS Change from Active BL to Week 24, Median",32 mg,−4.0
same,"NSFS Change from Active BL to Week 52, Mean (SD)",32 mg,−5.7 (3.95)
same,"NSFS Change from Active BL to Week 52, Median",32 mg,−5.0
same,"NSFS Change from Active BL to Week 54, Mean (SD)",32 mg,−5.7 (3.55)
same,"NSFS Change from Active BL to Week 54, Median",32 mg,−6.0
same,"NSFS Change from Open-label BL to Week 24, Mean (SD)",32 mg,−1.4 (2.51)
same,"NSFS Change from Open-label BL to Week 24, Median",32 mg,−1.0
same,"NSFS Change from Open-label BL to Week 52, Mean (SD)",32 mg,−3.3 (3.23)
same,"NSFS Change from Open-label BL to Week 52, Median",32 mg,−3.0
same,"NSFS Change from Open-label BL to Week 54, Mean (SD)",32 mg,−3.3 (3.45)
same,"NSFS Change from Open-label BL to Week 54, Median",32 mg,−3.0
same,"NSFS Change from Study BL to Week 24, Mean (SD)",32 mg,−4.9 (3.61)
same,"NSFS Change from Study BL to Week 24, Median",32 mg,−5.0
same,"NSFS Change from Study BL to Week 52, Mean (SD)",32 mg,−6.9 (3.95)
same,"NSFS Change from Study BL to Week 52, Median",32 mg,−6.0
same,"NSFS Change from Study BL to Week 54, Mean (SD)",32 mg,−6.8 (3.80)
same,"NSFS Change from Study BL to Week 54, Median",32 mg,−6.0
same,"NSFS Change from Active BL to Week 24, Mean (SD)",64 mg,−4.2 (3.92)
same,"NSFS Change from Active BL to Week 24, Median",64 mg,−4.0
same,"NSFS Change from Active BL to Week 52, Mean (SD)",64 mg,−6.7 (4.23)
same,"NSFS Change from Active BL to Week 52, Median",64 mg,−7.0
same,"NSFS Change from Active BL to Week 54, Mean (SD)",64 mg,−6.6 (4.40)
same,"NSFS Change from Active BL to Week 54, Median",64 mg,−7.0
same,"NSFS Change from Open-label BL to Week 24, Mean (SD)",64 mg,−1.6 (3.02)
same,"NSFS Change from Open-label BL to Week 24, Median",64 mg,−1.0
same,"NSFS Change from Open-label BL to Week 52, Mean (SD)",64 mg,−4.3 (3.77)
same,"NSFS Change from Open-label BL to Week 52, Median",64 mg,−4.0
same,"NSFS Change from Open-label BL to Week 54, Mean (SD)",64 mg,−4.0 (3.88)
same,"NSFS Change from Open-label BL to Week 54, Median",64 mg,−4.0
same,"NSFS Change from Study BL to Week 24, Mean (SD)",64 mg,−5.0 (3.49)
same,"NSFS Change from Study BL to Week 24, Median",64 mg,−5.0
same,"NSFS Change from Study BL to Week 52, Mean (SD)",64 mg,−7.5 (3.61)
same,"NSFS Change from Study BL to Week 52, Median",64 mg,−7.0
same,"NSFS Change from Study BL to Week 54, Mean (SD)",64 mg,−7.4 (3.81)
same,"NSFS Change from Study BL to Week 54, Median",64 mg,−7.0
same,"NSFS Change from Active BL to Week 24, Mean (SD)",Total,−5.1 (3.52)
same,"NSFS Change from Active BL to Week 24, Median",Total,−5.0
same,"NSFS Change from Active BL to Week 52, Mean (SD)",Total,−7.0 (3.84)
same,"NSFS Change from Active BL to Week 52, Median",Total,−6.0
same,"NSFS Change from Active BL to Week 54, Mean (SD)",Total,−7.0 (3.56)
same,"NSFS Change from Active BL to Week 54, Median",Total,−7.0
same,"NSFS Change from Open-label BL to Week 24, Mean (SD)",Total,−1.3 (2.56)
same,"NSFS Change from Open-label BL to Week 24, Median",Total,−1.0
same,"NSFS Change from Open-label BL to Week 52, Mean (SD)",Total,−3.2 (2.99)
same,"NSFS Change from Open-label BL to Week 52, Median",Total,−3.0
same,"NSFS Change from Open-label BL to Week 54, Mean (SD)",Total,−3.2 (3.29)
same,"NSFS Change from Open-label BL to Week 54, Median",Total,−3.0
same,"NSFS Change from Study BL to Week 24, Mean (SD)",Total,−5.1 (3.52)
same,"NSFS Change from Study BL to Week 24, Median",Total,−5.0
same,"NSFS Change from Study BL to Week 52, Mean (SD)",Total,−7.0 (3.84)
same,"NSFS Change from Study BL to Week 52, Median",Total,−6.0
same,"NSFS Change from Study BL to Week 54, Mean (SD)",Total,−7.0 (3.56)
same,"NSFS Change from Study BL to Week 54, Median",Total,−7.0
